Reference: ChEMBL document CHEMBL1140475, “Structure-activity relationship (SAR) investigations of substituted imidazole analogs as TRPV1 antagonists” (Bioorg Med Chem Lett, 2007)
pIC50: −log10 of the molar value.

Key:
[1] = biological target: T1, Transient receptor potential cation channel subfamily V member 1 (Rattus norvegicus, UniProt O35433); assay: Antagonist activity at rat TRPV1 expressed in CHO cells assessed blocking of capsaicin-induced calcium influx; type: functional, cell-based
[2] = biological target: T1, Transient receptor potential cation channel subfamily V member 1; assay: Antagonist activity at rat TRPV1 expressed in CHO cells assessed blocking of acid-induced calcium influx at pH 5; type: functional, cell-based
[3] = Tmax in Sprague-Dawley rat at 5 mg/kg, po; type: ADME, organism-based; parameters: dose 5 mg/kg, route oral; settings: in vivo
[4] = Cmax in Sprague-Dawley rat at 5 mg/kg, po; type: ADME, organism-based; parameters: dose 5 mg/kg, route oral; settings: in vivo
[5] = Bioavailability in Sprague-Dawley rat at 5 mg/kg; type: ADME, organism-based; settings: in vivo
[6] = Volume of distribution at steady state in Sprague-Dawley rat at 1 mg/kg, iv; type: ADME, organism-based; parameters: dose 1 mg/kg, route intravenous; settings: in vivo, read-out: Vdss
[7] = AUC (0 to infinity) in Sprague-Dawley rat at 5 mg/kg, po; type: ADME, organism-based; parameters: time infinity, dose 5 mg/kg, route oral; settings: plasma
[8] = Clearance in Sprague-Dawley rat at 1 mg/kg, iv; type: ADME, organism-based; parameters: dose 1 mg/kg, route intravenous; settings: in vivo
[9] = AUC (0 to infinity) in Sprague-Dawley rat at 1 mg/kg, iv; type: ADME, organism-based; parameters: time infinity, dose 1 mg/kg, route intravenous; settings: plasma
[10] = Half life in Sprague-Dawley rat at 1 mg/kg, iv; type: ADME, organism-based; parameters: dose 1 mg/kg, route intravenous; settings: in vivo

T1 sequence (O35433 whole entry): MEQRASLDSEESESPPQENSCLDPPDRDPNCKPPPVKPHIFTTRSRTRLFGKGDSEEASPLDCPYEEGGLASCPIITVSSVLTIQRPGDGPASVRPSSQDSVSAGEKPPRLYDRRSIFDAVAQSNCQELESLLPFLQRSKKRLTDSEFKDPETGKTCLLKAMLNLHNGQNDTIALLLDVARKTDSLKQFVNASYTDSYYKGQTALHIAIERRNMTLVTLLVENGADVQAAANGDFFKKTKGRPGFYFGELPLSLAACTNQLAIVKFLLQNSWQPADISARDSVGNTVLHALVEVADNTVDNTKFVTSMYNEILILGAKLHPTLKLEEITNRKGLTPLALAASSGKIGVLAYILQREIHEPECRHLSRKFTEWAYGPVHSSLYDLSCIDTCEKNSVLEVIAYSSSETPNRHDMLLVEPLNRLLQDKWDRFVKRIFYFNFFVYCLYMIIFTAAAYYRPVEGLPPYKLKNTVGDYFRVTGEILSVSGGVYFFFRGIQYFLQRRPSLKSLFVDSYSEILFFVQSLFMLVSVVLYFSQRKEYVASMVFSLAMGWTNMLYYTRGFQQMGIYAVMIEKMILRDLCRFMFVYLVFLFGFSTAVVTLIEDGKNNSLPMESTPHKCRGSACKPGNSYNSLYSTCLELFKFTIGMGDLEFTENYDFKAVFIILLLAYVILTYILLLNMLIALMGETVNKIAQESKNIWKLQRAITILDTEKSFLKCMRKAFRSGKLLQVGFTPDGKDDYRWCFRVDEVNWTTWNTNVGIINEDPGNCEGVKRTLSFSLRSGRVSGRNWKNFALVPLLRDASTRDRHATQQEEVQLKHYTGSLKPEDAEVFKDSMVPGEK

Compound	pIC50 [1]	pIC50 [2]	other results
COC(=O)c1nc(N2CCN(c3ncccc3C(F)(F)F)CC2)[nH]c1-c1ccc(C(F)(F)F)cc1	5.93	6.74	–
FC(F)(F)c1ccc(-c2nc(N3CCN(c4ncccc4C(F)(F)F)CC3)[nH]c2-c2ccc(C(F)(F)F)cc2)cc1	6.24	6.84	–
FC(F)(F)c1ccc(-c2c[nH]c(N3CCN(c4ncccc4C(F)(F)F)CC3)n2)cc1	6.06	< 5.40	–
FC(F)(F)c1cccc(-c2[nH]c(N3CCN(c4ncccc4C(F)(F)F)CC3)nc2-c2ccccc2)c1	5.91	6.78	–
CC(C)N1CCN(C(=O)c2nc(N3CCN(c4ncccc4C(F)(F)F)CC3)[nH]c2-c2ccc(C(F)(F)F)cc2)CC1	6.15	6.00	–
CCN1CCCC1CNC(=O)c1nc(N2CCN(c3ncccc3C(F)(F)F)CC2)[nH]c1-c1ccc(C(F)(F)F)cc1 (stereo not given)	5.39	5.48	–
O=C(NCC1CCCCN1)c1nc(N2CCN(c3ncccc3C(F)(F)F)CC2)[nH]c1-c1ccc(C(F)(F)F)cc1 (stereo not given)	5.53	< 5.40	–
CC(C)CN1CCCCC1CNC(=O)c1nc(N2CCN(c3ncccc3C(F)(F)F)CC2)[nH]c1-c1ccc(C(F)(F)F)cc1 (stereo not given)	5.72	< 5.40	–
Cc1nc(N2CCN(c3ncccc3C(F)(F)F)CC2)[nH]c1-c1ccc(C(F)(F)F)cc1	6.20	< 5.40	–

Stronger by pIC50 [1], values ahead:

pIC50 [1]	pIC50 [2]	Compound	other results
8.15	7.70	Fc1cc(-c2nc(N3CCN(c4ncccc4C(F)(F)F)CC3)[nH]c2-c2ccc(C(F)(F)F)cc2)cc(F)c1F	Tmax [3]: 1 h; Cmax [4]: 17 ng/mL; bioavailability [5]: 3%; Vd [6]: 1.7 L/kg; AUC(0-inf) [7]: 80 ng·h/mL; clearance [8]: 31.7 mL/min/kg; AUC(0-inf) [9]: 529 ng·h/mL; half-life [10]: 1.9 h
7.46	7.07	Fc1cc(F)cc(-c2nc(N3CCN(c4ncccc4C(F)(F)F)CC3)[nH]c2-c2ccc(C(F)(F)F)cc2)c1	–
7.05	6.80	OCc1cnc(N2CCN(c3nc(-c4ccccc4)c(-c4ccc(C(F)(F)F)cc4)[nH]3)CC2)c(Cl)c1	–
9.00	8.40	C[C@@H]1CN(c2ncc(CO)cc2Cl)CCN1c1nc(-c2cc(F)c(F)c(F)c2)c(-c2ccc(C(F)(F)F)cc2)[nH]1	Tmax [3]: 4.7 h; Cmax [4]: 347 ng/mL; bioavailability [5]: 40%; Vd [6]: 5.4 L/kg; AUC(0-inf) [7]: 2460 ng·h/mL; clearance [8]: 13.3 mL/min/kg; AUC(0-inf) [9]: 1230 ng·h/mL; half-life [10]: 6.3 h
7.59	7.54	C[C@@H]1CN(c2ncc(CO)cc2Cl)CCN1c1nc(-c2ccccc2)c(-c2ccc(C(F)(F)F)cc2)[nH]1	–
6.93	6.47	C[C@@H]1CN(c2ncccc2C(F)(F)F)CCN1c1nc(-c2ccccc2)c(-c2ccc(C(F)(F)F)cc2)[nH]1	–
6.97	6.67	FC(F)(F)c1ccc(-c2[nH]c(N3CCN(c4ncccc4C(F)(F)F)CC3)nc2-c2ccccc2)cc1	Tmax [3]: 1.3 h; Cmax [4]: 13 ng/mL; bioavailability [5]: 6%; Vd [6]: 5 L/kg; AUC(0-inf) [7]: 30 ng·h/mL; clearance [8]: 167 mL/min/kg; AUC(0-inf) [9]: 105 ng·h/mL; half-life [10]: 2.3 h
7.36	7.49	Fc1cc(-c2nc(N3CCN(c4ncccc4C(F)(F)F)CC3)[nH]c2-c2cc(F)c(F)c(F)c2)cc(F)c1F	–
6.80	< 5.40	FC(F)(F)c1ccc(-c2nc(N3CCN(c4ncccc4C(F)(F)F)CC3)[nH]c2Cl)cc1	–
